Measurements as given in US5578479A, “Alpha-amylase from hyperthermophilic archaebacterium” (The Johns Hopkins University, priority 1992, dated 1996).
Where a name gives a salt, the structure may show the parent alone.

Tests used:
[1] = biological target: T1, Pyrococcus furiosus α-amylase, purified, wild type, SEQ ID NO:1 (Pyrococcus furiosus, UniProt P49067); assay: standard activity assay in the presence of denaturants; format: biochemical; conditions: reagent present at 1M, 98° C.
T1 construct: made in house; host or cells: Pyrococcus furiosus DSM 3638, native cells (not recombinant); cytosolic fraction, three ion exchange steps and electroelution
T1 sequence (P49067 2-649): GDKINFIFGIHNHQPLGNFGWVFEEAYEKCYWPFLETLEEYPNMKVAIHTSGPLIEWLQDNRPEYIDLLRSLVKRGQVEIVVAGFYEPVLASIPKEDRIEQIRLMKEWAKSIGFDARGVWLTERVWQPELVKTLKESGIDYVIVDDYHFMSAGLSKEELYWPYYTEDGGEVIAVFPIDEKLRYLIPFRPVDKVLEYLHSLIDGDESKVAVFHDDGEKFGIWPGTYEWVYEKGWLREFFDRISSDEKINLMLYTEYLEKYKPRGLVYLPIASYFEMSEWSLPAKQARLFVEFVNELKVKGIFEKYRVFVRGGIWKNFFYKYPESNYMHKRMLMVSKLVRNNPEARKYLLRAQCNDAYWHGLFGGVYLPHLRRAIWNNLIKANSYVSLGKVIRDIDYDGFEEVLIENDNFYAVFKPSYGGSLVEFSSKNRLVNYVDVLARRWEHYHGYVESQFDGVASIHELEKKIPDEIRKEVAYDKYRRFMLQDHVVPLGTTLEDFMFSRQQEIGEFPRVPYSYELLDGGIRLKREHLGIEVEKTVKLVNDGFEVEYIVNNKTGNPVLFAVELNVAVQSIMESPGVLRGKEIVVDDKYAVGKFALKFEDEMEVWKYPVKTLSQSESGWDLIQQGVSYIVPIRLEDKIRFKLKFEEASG
Experimental: The dextrinizing activity of the α-amylase was determined using a modification of the assay of Manning and Campbell (Manning et al, J. Biological Chem. 236(11):2952-2957 (1961)). To 20 μl of sample were added 20 μl of 1% soluble starch and 20 μl of 100 mM sodium phosphate, pH 7.0. Controls were prepared using an equal volume of the appropriate buffer in place of the enzyme solution. The samples were incubated at 92° C. for 10 minutes and the reaction terminated by cooling in ice water. Color was developed by the addition of 15 μl of an iodine solution (4% KI, 1.25% I). An additional 1 ml of distilled water was added to each sample to dilute the color of the sample to a measurable range. The absorbance was read at 600 nm with a Pharmacia LB Ultraspec III Spectrophotometer. One unit of α-amylase activity was defined as the amount of protein which hydrolyzed 1 mg of starch per minute.
The extent of activity loss induced by the denaturants, urea and guanidine HCl, was determined using a standard activity assay in which the above-mentioned reagents were present in 1M concentrations. At 98° C. the residual activity in the presence of these denaturants was 86.5% and 73% for urea and guanidine HCl, respectively.

[2] = biological target: T1, Pyrococcus furiosus α-amylase, purified, wild type, SEQ ID NO:1; assay: activity stained native-PAGE after heating samples with additive; format: biochemical; conditions: sample heated 15 minutes
Experimental: Samples were heated 15 min in the following: Lane 1, 100 mM sodium phosphate pH 7.0; Lane 2, 5 mM EDTA; Lane 3, % SDS; Lane 4, 12% β-mercaptoethanol. The samples were run on a native gel (8% acrylamide), containing 0.02% starch, and stained as described in the Examples.
Activity staining was accomplished by the incorporation of starch into the acrylamide matrix of the resolving gel. When preparing the gels, as described above, 0.05% soluble starch was used in place of distilled water when the gels were cast. To observe the thermophilic amylase activity following electrophoresis the spacers and the gel left between the glass plates were sealed with Saran Wrap to prevent dessication. The gel, between the plates, was then incubated for 30 minutes at 98° C., then stained with iodine solution (see above). […] Following this procedure it was still possible to stain the gel with Coomassie blue to visualize the proteins within the gel.
To determine the effect of denaturants and metal ions on the activity of P. furiosus α-amylase activity, stained native-PAGE or in vitro activity assays were utilized.

| Compound | residual activity in the presence of denaturant [1] [%] | also measured |
| --- | --- | --- |
| NC(N)=O [urea] | 86.5 | – |
| O=C(O)CN(CCN(CC(=O)O)CC(=O)O)CC(=O)O [EDTA] | – | effect on activity (activity stained native-PAGE) ([2]; 5 mM EDTA): no significant effect on activity |
| OCCS [β-mercaptoethanol] | – | effect on activity (activity stained native-PAGE) ([2]; 2% β-mercaptoethanol): no significant effect on activity |
| N=C(N)N [guanidine HCl] | 73 | – |
